Assay results reported in patent publication US9376421B2, “Compounds and methods for myotonic dystrophy therapy” (The Board of Trustees of the University of Illinois, priority 2014, dated 2016).
Entries after “also recorded” stand apart in the source; their conditions may differ.

Key:
cells = conditions: cited from earlier work
[1] = test system: SV40 terminator mRNA in i(CUG)480 larvae; assay: SV40 mRNA level in i(CUG)480 larvae (real-time PCR); type: in vivo, Drosophila; conditions: relative to actin RNA
[2] = test system: DM1 Drosophila expressing i(CTG)480; assay: External eye assay in DM1 Drosophila; type: in vivo
Experimental: Drosophila lines were cultured in standard cornmeal medium supplemented with dry yeasts. […] The gmr-GAL4 and 24B-GAL4 lines were used to drive UAS transgene expression in eye and muscles respectively. Ligands 2 and 9 were dissolved in ddH2O and mixed with fly food. Genetic crosses were set up in drug-containing fly food at 21.5° C. for external eye assay, and at 25° C. for larval crawling assay and real-time PCR analysis.

d(CTG.CAG)12 = assay: Isothermal titration calorimetry, d(CTG.CAG)12; type: binding; conditions: 25° C., 20 mM MOPS pH 7.0, 300 mM NaCl
Experimental: (§1) To directly assess the DNA-targeting ability of 9, ITC experiments were performed with oligonucleotide analogs of the various trinucleotide repeat sequences (Table 1). […] This supports the idea that 9 inhibits the transcription of CTG^exp by stabilizing its hairpin structure. […] The in vitro transcription experiment using (CTG[…]CAG)74 (SEQ ID NOS 3-4, respectively) and compounds 2, 5-7, and 9 was repeated but with (CUG)16 (SEQ ID NO: 1) added as a competitor.
(§2) Isothermal titration calorimetry (ITC) measurements were performed at 25° C. on a MicroCal VP-ITC (MicroCal, Inc., Northampton, Mass.). A standard experiment consisted of titrating 10 μL of a 500 μM ligand solution from a […] syringe (rotating at 300 rpm) into a sample cell containing 1.42 mL of a 10 μM DNA or RNA solution. An ITC experiment consisted of 28 total injections (first injection was 5 μL, subsequent injections were 10 μL), with a 10 s duration per injection and delay of 380 s between injections. The initial delay prior to the first injection was 300 s. To derive the heat associated with each injection, the area under each isotherm (microcalories per second versus seconds) was determined by integration by the graphing program Origin 7.0 (MicroCal, Inc. Northampton, Mass.). […]

[3] = test system: Drosophila larvae expressing i(CUG)480; assay: Larval crawling assay in DM1 Drosophila; type: in vivo; conditions: 400 μM; untreated i(CUG)480 9 lines/min
Excerpt: To test the abilities of 2 and 9 to improve the locomotor behavior of Drosophila larvae, we used crawling assays (Nichols et al., J. Vis. Exp. 61, e3795 (2012); Lanson et al., Hum. Mol. Genet. 20, 2510-2523 (2011); Batlevi et al., Proc. Natl. Acad. Sci. U.S.A. 107, 742-747 (2010)). […] Those expressing i(CUG)480 (SEQ ID NO: 17) crossed only 9 lines/min (FIG. 9b). […] Importantly, the phenotypic improvement with both compounds was dose-dependent and 9 in all cases provided greater phenotypic reversal than did 2.
Drosophila lines were cultured in standard cornmeal medium supplemented with dry yeasts. Fly lines bearing UAS-(CTG)60 (SEQ ID NO: 5) and UAS-(CTG)480 (SEQ ID NO: 6) were kind gifts of Prof. Rubén Artero Allepuz (Universitat de València, Estudi General, Spain). The gmr-GAL4 and 24B-GAL4 lines were used to drive UAS transgene expression in eye and muscles respectively. Ligands 2 and 9 were dissolved in ddH2O and mixed with fly food. […]
Larval crawling assays were performed as described in Lanson et al (Hum. Mol. Genet. 20, 2510-2523 (2011)). […] The larvae were allowed to acclimate for a period of 1 min, and the total number of gridlines that the posterior end of the larvae passed in 1 min was determined Each set of experiment was repeated independently three times using larvae collected from separate genetic crosses.

[4] = test system: SV40 terminator mRNA in i(CUG)60 larvae; assay: SV40 mRNA level in i(CUG)60 larvae (real-time PCR); type: in vivo, Drosophila; conditions: 400 μM
HIV FS = assay: Ligand-RNA binding affinity, HIV FS; set-up: species or system HIV-1
d(CTG)12 = assay: Isothermal titration calorimetry, d(CTG)12; type: binding; conditions: 25° C., 20 mM MOPS pH 7.0, 300 mM NaCl
Experimental: as §1, §2

(CUG)n = assay: Ligand-RNA binding affinity, (CUG)n
Excerpt: Off target activity is a concern for any therapeutic agent but especially one designed to cleave RNA. To test the selectivity of agents 6 and 9, the screening gel assay described above was applied to other RNA targets, specifically cTNT32, (CCUG)8 (SEQ ID NO: 11), and HIV-1 frameshift site RNA (HIV FS) (FIG. 5a). Both 6 and 9 were quite selective. […] Thus, both similarly adopt stem-loop structures with internal loops within the stem, although obviously of different sequences. Differences between 6 and 9 were observed (FIG. 5) with the former cleaving (CCUG)8 (SEQ ID NO: 11), the toxic RNA involved in myotonic dystrophy type 2 (DM2). […] The ability to process the RNA directly parallels the corresponding ligand-RNA binding affinities. Thus, 1, which contains the acridine-triazine core of agent 6, complexes the (CCUG)6 (SEQ ID NO: 12) and (CUG)n sequences.

d(CAG)12 = assay: Isothermal titration calorimetry, d(CAG)12; type: binding; conditions: 25° C., 20 mM MOPS pH 7.0, 300 mM NaCl
Experimental: as §1, §2

[5] = test system: Drosophila bearing i(CUG)60; assay: Treatment of control Drosophila bearing i(CUG)60; conditions: in vivo
Excerpt: FIG. 15A-C. Rescuing disease phenotypes in DM1 Drosophila with ligands 2 and 9. […] The error bars represent the standard deviation of three independent experiments (“(CTG)60” is disclosed as SEQ ID NO: 5).

cTNT32 = assay: Ligand-RNA binding affinity, cTNT32

N=C(NCCCCNc1nc(N)nc(N)n1)c1ccc(C(=N)NCCCCNc2nc(N)nc(N)n2)cc1 [Ligand 2]
cell permeability / cell uptake (cells): better cell uptake
reduction of SV40 mRNA levels in i(CUG)480 larvae [1]: did not
disease phenotype in DM1 fly eyes at 200 μM ([2]; 200 μM): reversed the disease phenotype
neurodegenerative (glossy and rough-eye) phenotype ([2]; in fly food, 6 d): reversal of the disease phenotype but less effectively; also recorded: improved the neurodegeneration
binding affinity toward d(CTG.CAG)12 by ITC (d(CTG.CAG)12): lack of binding affinity
average crawling speed [3]: ca. 13 lines/min
SV40 mRNA levels in larvae having i(CUG)60 [4]: no change
affinity toward HIV FS (HIV FS): no affinity
binding affinity toward d(CTG)12 by ITC (d(CTG)12): lack of binding affinity; also recorded: no detectable binding
complexation of (CUG)n ((CUG)n): complexes
binding affinity toward d(CAG)12 by ITC (d(CAG)12): lack of binding affinity
effects on larval locomotion and eyes of i(CUG)60 Drosophila [5]: no effects
affinity toward cTNT32 (cTNT32): no affinity
